Data set [1] is described as follows: Aerodynamic particle size distribution of Sample VI by Next Generation Impactor (NGI), soft mist inhaler. The following applies: NGI 30 L/minute, RH 90±2%. The class given is physicochemical. The procedure: The aerodynamic particle size distribution was determined using a Next Generation Impactor instrument (NGI). The soft mist inhaler was held close to the NGI inlet until no aerosol was visible. The flow rate of the NGI was set to 30 L/minute and was operated under ambient temperature and a relative humidity (RH) of 90±2%.
Sample VI was discharged into the NGI. Fractions of the dose were deposited at different stages of the NGI, in accordance with the particle size of the fraction. Each fraction was washed from the stage and analyzed using HPLC.
The particle size distribution was expressed in terms of mass median aerodynamic diameter (MMAD) and geometric standard deviation (GSD).

Data set [2] in a line: Aerodynamic particle size distribution by Andersen Cascade Impactor (ACI). The class given is physicochemical. The following applies: Samples I-V, flow rate 28.3 L/min. The procedure: An Andersen Cascade Impactor instrument (ACI) was used to determine the particle size distribution of Samples I-V. The test was conducted at a flow rate of 28.3 L/min. Deposition of the active substance on each ACI plate was confirmed by high pressure liquid chromatography. The particle size was expressed in terms of mass median aerodynamic diameter (MMAD) and Geometric Standard Deviation (GSD).

In the case of “(3RS)-3-[(2 SR)-(2-cyclopentyl-2-hydroxy-2-penylacetyl)oxy]-1,1-dimethlypyrrolidinium bromide [Glycopyrronium bromide]”, in data set [1], the “Fine Particle Fraction (FPF)” value came out at 70.45%, the “Fine particle dose (FPD)” value was determined as 8.44 µg, the GSD result is given as “less than 2” and the MMAD result is given as “less than 6 μm”. In data set [1] (listed as Glycopyrrolate), this substance gave a GSD of 1.77 and an MMAD of 4.05 μm. Moreover, in data set [2], the GSD is recorded as 1.7 and the MMAD came to 4.4 μm.

The values above are taken from patent US20210275449A1, “Inhalable Formulation of a Solution Containing Glycopyrronium Bromide” (priority 2020, published 2021).
